Experimental data published in patent publication US8058306B2, “Phenyl pyrrole aminoguanidine derivatives” (Action Pharma A/S, priority 2006, dated 2011).
Values joined by “and” are separate entries in the source; they are usually repeats but may differ in a detail not shown here. Equal values may be shown once. “Also recorded” adds a separate entry of the source. Read-outs that look alike come from different tables or passages of the source.

Experiment: Plasma kinetics in rat following intravenous and oral administration;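 on AUC0-∞: parameter is AUC from zero to infinity in ng·h/mL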
Assay type: in vivo, Sprague Dawley rats
Conditions: for t1/2: Table XIV; for concentration at 0.05 h / concentration at 0.1 h / concentration at 0.25 h / concentration at 0.75 h / concentration at 1.5 h / concentration at 2.5 h / concentration at 4 h / concentration at 6 h / concentration at 8 h / concentration at 24 h: single intravenous 10 mg/kg
Experimental: This study determined the intravenous pharmacokinetics and oral bioavailability of compound 1 of the invention (see FIG. 1A, structure no. 1), compound 2 of the invention (see FIG. 1D, structure no. 19) and compound 3 of the invention (see FIG. 1I, structure no. 53) following administration to Sprague Dawley rats at a dose level of 10 mg/kg.
Six groups of 3 male rats received either a single intravenous or single oral administration of compound 1, 2 or 3 of the invention at a dose level of 10 mg/kg. Blood samples were obtained at various times after dosing. Plasma samples were analysed for unchanged test item using a suitable LC-MS/MS method. Pharmacokinetic parameters were estimated from individual plasma concentrations.
Eighteen male rats each received either a single intravenous or a single oral administration of either compound 1, 2 or 3 at a dose level of 10 mg/kg. The formulation was orally administered to each animal by gastric gavage and intravenously administered to each animal via a tail vein. The dose was administered at a dose volume of 5 mL/kg. The formulations were administered to each animal according to the details in the following table:
Blood samples (ca 0.3 mL) were removed from the femoral vein of each animal into tubes containing lithium heparin as anticoagulant.
Blood samples were collected from 3 rats at the following times after dose administration: • 3, 6, 15, 45 min and 1.5, 2.5, 4, 6, 8, 24 h post dose. Oral Administration
Blood samples were collected from 3 rats at the following times after dose administration: • 5, 15, 45 min and 1.5, 2.5, 4, 6, 8, 24 h post dose. Processing of Blood Samples
Pharmacokinetic parameters of compound 1, 2 and 3 were derived by non-compartmental analysis using WinNonLin Pro version 5.0.1 (Pharsight 2005). The following parameters were derived, where appropriate, from the individual plasma concentration versus time profiles:
• F % The absolute oral bioavailability calculated as [AUC0-t (oral)*Dose(iv)/AUC0-t (iv)*Dose (oral)]*100 based on mean values derived after oral and intravenous administration Consideration was given to the estimation of λz and corresponding t1/2 values. Three or more points are required within the terminal phase for λz and t1/2 to be estimated. The following additional variables were tabulated to aid identification of potentially unreliable estimates of t1/2 and AUC:
Pharmacokinetic parameters were reported as geometric mean except Tmax which was reported as the median. Geometric coefficient of variation was calculated as: […]
Actual sampling times were used for all calculations of pharmacokinetic parameters. Plasma concentrations that were below the limit of quantification were taken as zero for the pharmacokinetic analysis.

[1] = intravenous 10 mg/kg, male rats, individual animals, acetate, 10 mg/kg
[2] = male, Sprague Dawley, rat, plasma, iv, 10 mg/kg, male rats, individual animals, read-out: Sample Concentration in plasma
[3] = male, Sprague Dawley, rat, plasma, iv, 10 mg/kg, male rats, mean of 3, read-out: Mean Concentration in plasma
[4] = male, Sprague Dawley, rat, plasma, iv, 10 mg/kg, male rats, individual animals, LLOQ 2.50, read-out: Sample Concentration in plasma
[5] = male, Sprague Dawley, rat, plasma, iv, 10 mg/kg, male rats, mean, read-out: Mean Concentration in plasma

Compound: N=C(N)NN=CC=Cc1cccn1-c1ccccc1Br [Compound 3, [1-(2-bromophenyl)-1H-pyrrol-2-yl-allylideneamino]guanidinium acetate]
- bioavailability (Sprague Dawley, rat, plasma, 10 mg/kg oral vs intravenous, male rats, from mean AUC0-t, read-out: Mean absolute oral bioavailability): 20.6%
- t1/2 (intravenous 10 mg/kg, male rats, Arithmetic Mean): 3.15 h
- t1/2 (intravenous 10 mg/kg, male rats, Geometric mean): 3.14 h
- t1/2 (intravenous 10 mg/kg, male rats, Median): 3.26 h
- t1/2 [1]: 3.26 h and 3.46 h and 2.74 h
- Between-animal variability in systemic exposure, coefficient of variation (CV) of AUC0-t (intravenous 10 mg/kg, male rats): less than 30%
- AUC0-∞ [1]: 1911 ng·h/mL and 2504 ng·h/mL
- AUC(0-t) [1]: 1896 ng·h/mL and 2258 ng·h/mL
- C0 [1]: 9463 ng/mL and 4924 ng/mL
- CL [1]: 90.3 mL/min/kg and 68.25 mL/min/kg
- MRT [1]: 2.53 h
- Vss [1]: 13.694 L/kg and 13.225 L/kg
- Systemic clearance (in words) (intravenous 10 mg/kg, rats): high
- volume of distribution compared with total body water (in words) (intravenous 10 mg/kg, rats, total body water 668 mL/kg, acetate, 10 mg/kg): exceeded the total body water; also recorded: markedly greater than that of the total body water
- systemic plasma clearance (CL) compared with hepatic blood flow (in words) (intravenous 10 mg/kg, hepatic blood flow 3312 mL/h/kg): greater than hepatic blood flow
- AUC(0-inf) (male, Sprague Dawley, rat, plasma, iv, 10 mg/kg, intravenous 10 mg/kg, male rats, Arithmetic Mean): 2500 ng·h/mL
- AUC(0-t) (male, Sprague Dawley, rat, plasma, iv, 10 mg/kg, intravenous 10 mg/kg, male rats, Arithmetic Mean, read-out: AUC0-t): 2410 ng·h/mL
- C0 (male, Sprague Dawley, rat, plasma, iv, 10 mg/kg, intravenous 10 mg/kg, male rats, Arithmetic Mean, read-out: C0): 6630 ng/mL
- clearance (male, Sprague Dawley, rat, plasma, iv, 10 mg/kg, intravenous 10 mg/kg, male rats, Arithmetic Mean, read-out: CL (converted)): 71.3 mL/min/kg
- MRT (male, Sprague Dawley, rat, plasma, iv, 10 mg/kg, intravenous 10 mg/kg, male rats, Arithmetic Mean, read-out: MRT): 3.24 h
- Vd (male, Sprague Dawley, rat, plasma, iv, 10 mg/kg, intravenous 10 mg/kg, male rats, Arithmetic Mean, read-out: Vss): 13.4 L/kg
- AUC(0-inf) (male, Sprague Dawley, rat, plasma, iv, 10 mg/kg, intravenous 10 mg/kg, male rats, Geometric mean): 2460 ng·h/mL
- AUC(0-t) (male, Sprague Dawley, rat, plasma, iv, 10 mg/kg, intravenous 10 mg/kg, male rats, Geometric mean, read-out: AUC0-t): 2360 ng·h/mL
- C0 (male, Sprague Dawley, rat, plasma, iv, 10 mg/kg, intravenous 10 mg/kg, male rats, Geometric mean, read-out: C0): 6360 ng/mL
- clearance (male, Sprague Dawley, rat, plasma, iv, 10 mg/kg, intravenous 10 mg/kg, male rats, Geometric mean, read-out: CL (systemic plasma clearance) (converted)): 69.9 mL/min/kg
- MRT (male, Sprague Dawley, rat, plasma, iv, 10 mg/kg, intravenous 10 mg/kg, male rats, Geometric mean, read-out: MRT): 3.19 h
- Vd (male, Sprague Dawley, rat, plasma, iv, 10 mg/kg, intravenous 10 mg/kg, male rats, Geometric mean, read-out: Vss (mean apparent volume of distribution)): 13.4 L/kg
- half-life (male, Sprague Dawley, rat, plasma, iv, 10 mg/kg, intravenous 10 mg/kg, male rats, Geometric mean, read-out: t1/2 (mean apparent terminal half-life) (converted)): 3.14 h
- AUC(0-inf) (male, Sprague Dawley, rat, plasma, iv, 10 mg/kg, intravenous 10 mg/kg, male rats, Median): 2500 ng·h/mL
- AUC(0-t) (male, Sprague Dawley, rat, plasma, iv, 10 mg/kg, intravenous 10 mg/kg, male rats, Median, read-out: AUC0-t): 2260 ng·h/mL
- C0 (male, Sprague Dawley, rat, plasma, iv, 10 mg/kg, intravenous 10 mg/kg, male rats, Median, read-out: C0): 5520 ng/mL
- clearance (male, Sprague Dawley, rat, plasma, iv, 10 mg/kg, intravenous 10 mg/kg, male rats, Median, read-out: CL (converted)): 68.2 mL/min/kg
- MRT (male, Sprague Dawley, rat, plasma, iv, 10 mg/kg, intravenous 10 mg/kg, male rats, Median, read-out: MRT): 3.23 h
- Vd (male, Sprague Dawley, rat, plasma, iv, 10 mg/kg, intravenous 10 mg/kg, male rats, Median, read-out: Vss): 13.2 L/kg
- AUC(0-inf) (male, Sprague Dawley, rat, plasma, iv, 10 mg/kg, intravenous 10 mg/kg, male rats, individual animals): 3090 ng·h/mL
- AUC(0-t) (male, Sprague Dawley, rat, plasma, iv, 10 mg/kg, intravenous 10 mg/kg, male rats, individual animals, read-out: AUC0-t): 3080 ng·h/mL
- C0 (male, Sprague Dawley, rat, plasma, iv, 10 mg/kg, intravenous 10 mg/kg, male rats, individual animals, read-out: C0): 5520 ng/mL
- clearance (male, Sprague Dawley, rat, plasma, iv, 10 mg/kg, intravenous 10 mg/kg, male rats, individual animals, read-out: CL (converted)): 55.4 mL/min/kg
- MRT (male, Sprague Dawley, rat, plasma, iv, 10 mg/kg, intravenous 10 mg/kg, male rats, individual animals, read-out: MRT): 3.96 h
- Vd (male, Sprague Dawley, rat, plasma, iv, 10 mg/kg, intravenous 10 mg/kg, male rats, individual animals, read-out: Vss): 13.2 L/kg
- concentration at 0.05 h (male, Sprague Dawley, rat, plasma, iv, 10 mg/kg, male rats, 0.05 h (3 min), mean of 3, read-out: Mean Concentration in plasma): 3170 ng/mL
- concentration at 0.05 h (male, Sprague Dawley, rat, plasma, iv, 10 mg/kg, male rats, 0.05 h, individual animals, read-out: Sample Concentration in plasma): 2530 ng/mL
- concentration at 0.1 h [2]: 978 ng/mL
- concentration at 0.1 h [3]: 1100 ng/mL
- concentration at 0.25 h [2]: 481 ng/mL
- concentration at 0.25 h [3]: 780 ng/mL
- concentration at 0.75 h [2]: 404 ng/mL
- concentration at 0.75 h [3]: 465 ng/mL
- concentration at 1.5 h [2]: 274 ng/mL
- concentration at 1.5 h [3]: 335 ng/mL
- concentration at 2.5 h [2]: 240 ng/mL
- concentration at 2.5 h [3]: 251 ng/mL
- concentration at 4 h [2]: 179 ng/mL
- concentration at 4 h [3]: 192 ng/mL
- concentration at 6 h [2]: 103 ng/mL
- concentration at 6 h [3]: 119 ng/mL
- concentration at 8 h [4]: 62.3 ng/mL
- concentration at 8 h [5]: 81.2 ng/mL
- concentration at 24 h [4]: 3.08 ng/mL
- concentration at 24 h [5]: 2.82 ng/mL
- AUC(0-inf) (male, Sprague Dawley, rat, plasma, po, 10 mg/kg, oral 10 mg/kg, male rats, Arithmetic Mean): 838 ng·h/mL
- AUC(0-t) (male, Sprague Dawley, rat, plasma, po, 10 mg/kg, oral 10 mg/kg, male rats, Arithmetic Mean, read-out: AUC0-t): 518 ng·h/mL
- Cmax (male, Sprague Dawley, rat, plasma, po, 10 mg/kg, oral 10 mg/kg, male rats, Arithmetic Mean, read-out: Cmax): 110 ng/mL
- MRT (male, Sprague Dawley, rat, plasma, po, 10 mg/kg, oral 10 mg/kg, male rats, Arithmetic Mean, read-out: MRT): 6.83 h
- half-life (male, Sprague Dawley, rat, plasma, po, 10 mg/kg, oral 10 mg/kg, male rats, Arithmetic Mean, read-out: t1/2 (converted)): 3.3 h
- Tmax (male, Sprague Dawley, rat, plasma, po, 10 mg/kg, oral 10 mg/kg, male rats, Arithmetic Mean, read-out: tmax): 4.67 h
